# Assay results from patent US10273221B2, “Microbiocidal heterobicyclic derivatives” (Syngenta Participations AG, priority 2015, dated 2019).
# Test system: Glomerella lagenarium (Colletotrichum lagenarium)
# Assay: Glomerella lagenarium (Colletotrichum lagenarium) / liquid culture (anthracnose)
# Format: cell-based
# Conditions: Colletotrichum orbiculare, growth inhibition measured photometrically 3-4 days after application, vs untreated control, read-out: disease control
row,Structure (SMILES),inhibition of growth at 200 ppm
1,Cc1ccc2c(ncn2C2=NC(C)(C)C(F)(F)c3c(F)cccc32)c1C [E-19],≥ 80%
2,Cc1cccc2c1ncn2C1=NC(C)(C)C(F)(F)c2c(F)cccc21 [E-20],≥ 80%
3,Cc1ccc2c(ncn2C2=NC(C)(C)C(F)(F)c3ccccc32)c1C [E-23],≥ 80%
4,Cc1ccc2c(ncn2C2=NC(C)(C)C(=O)c3ccccc32)c1C [E-25],≥ 80%
5,Cc1cccc2c1C(=O)C(C)(C)N=C2n1cnc2c(C)cccc21 [E-26],≥ 80%
6,Cc1cccc2c1C(=O)C(C)(C)N=C2n1cnc2c(C)c(C)ccc21 [E-27],≥ 80%

# Test system: Botryotinia fuckeliana (Botrytis cinerea)
# Assay: Botryotinia fuckeliana (Botrytis cinerea) / liquid culture (gray mould)
# Format: cell-based
# Conditions: growth inhibition determined photometrically 3-4 days after application, vs untreated control, read-out: disease control
row,Structure (SMILES),inhibition of growth at 200 ppm
1,Cc1ccc2c(ncn2C2=NC(C)(C)C(F)(F)c3c(F)cccc32)c1C [E-19],≥ 80%
2,Cc1cccc2c1ncn2C1=NC(C)(C)C(F)(F)c2c(F)cccc21 [E-20],≥ 80%
3,Cc1ccc2c(ncn2C2=NC(C)(C)C(F)(F)c3ccccc32)c1C [E-23],≥ 80%
4,Cc1ccc2c(ncn2C2=NC(C)(C)C(=O)c3ccccc32)c1C [E-25],≥ 80%
5,Cc1cccc2c1C(=O)C(C)(C)N=C2n1cnc2c(C)cccc21 [E-26],≥ 80%
6,Cc1cccc2c1C(=O)C(C)(C)N=C2n1cnc2c(C)c(C)ccc21 [E-27],≥ 80%

# Test system: not given
# Assay: not given
# Conditions: not given
row,Structure (SMILES),melting point
1,Cc1ccc2c(ncn2C2=NC(C)(C)C(=O)c3ccccc32)c1C [E-25],159 to 161 °C
2,Cc1cccc2c1C(=O)C(C)(C)N=C2n1cnc2c(C)cccc21 [E-26],96 to 101 °C
3,Cc1cccc2c1C(=O)C(C)(C)N=C2n1cnc2c(C)c(C)ccc21 [E-27],145 to 149 °C

# Test system: Sclerotinia sclerotiorum
# Assay: Sclerotinia sclerotiorum / liquid culture (cottony rot)
# Conditions: 72 h, read-out: control of Sclerotinia sclerotiorum
# Experimental: Sclerotinia sclerotiorum/Liquid Culture (Cottony Rot)
# Mycelia fragments of a newly grown liquid culture of the fungus are directly mixed into nutrient broth (Vogels broth). After placing a (DMSO) solution of test compound into a microtiter plate (96-well format) the nutrient broth containing the fungal material is added. The test plates are incubated at 24° C. and the inhibition of growth is determined photometrically 3-4 days after application.
row,Structure (SMILES),inhibition of growth at 20 ppm
1,Cc1ccc2c(ncn2C2=NC(C)(C)C(F)(F)c3c(F)cccc32)c1C [E-19],≥ 80%
2,Cc1cccc2c1ncn2C1=NC(C)(C)C(F)(F)c2c(F)cccc21 [E-20],≥ 80%
3,Cc1ccc2c(ncn2C2=NC(C)(C)C(F)(F)c3ccccc32)c1C [E-23],≥ 80%
4,Cc1ccc2c(ncn2C2=NC(C)(C)C(=O)c3ccccc32)c1C [E-25],≥ 80%
5,Cc1cccc2c1C(=O)C(C)(C)N=C2n1cnc2c(C)cccc21 [E-26],≥ 80%
6,Cc1cccc2c1C(=O)C(C)(C)N=C2n1cnc2c(C)c(C)ccc21 [E-27],≥ 80%

# Test system: Gaeumannomyces graminis
# Assay: Gaeumannomyces graminis / liquid culture (take-all of cereals)
# Format: cell-based
# Conditions: growth inhibition determined photometrically 4-5 days after application, vs untreated control, read-out: disease control
row,Structure (SMILES),inhibition of growth at 200 ppm
1,Cc1ccc2c(ncn2C2=NC(C)(C)C(F)(F)c3c(F)cccc32)c1C [E-19],≥ 80%
2,Cc1ccc2c(ncn2C2=NC(C)(C)C(F)(F)c3ccccc32)c1C [E-23],≥ 80%

# Test system: Magnaporthe grisea (Pyricularia oryzae)
# Assay: microbe, parasite or virus in culture
# Format: cell-based
# Conditions: 72 h, read-out: control of Magnaporthe grisea
row,Structure (SMILES),inhibition of growth at 20 ppm
1,Cc1ccc2c(ncn2C2=NC(C)(C)C(F)(F)c3c(F)cccc32)c1C [E-19],≥ 80%
2,Cc1cccc2c1ncn2C1=NC(C)(C)C(F)(F)c2c(F)cccc21 [E-20],≥ 80%
3,Cc1ccc2c(ncn2C2=NC(C)(C)C(F)(F)c3ccccc32)c1C [E-23],≥ 80%
4,Cc1ccc2c(ncn2C2=NC(C)(C)C(=O)c3ccccc32)c1C [E-25],≥ 80%
5,Cc1cccc2c1C(=O)C(C)(C)N=C2n1cnc2c(C)cccc21 [E-26],≥ 80%
6,Cc1cccc2c1C(=O)C(C)(C)N=C2n1cnc2c(C)c(C)ccc21 [E-27],≥ 80%

# Test system: Fusarium culmorum
# Assay: microbe, parasite or virus in culture
# Format: cell-based
# Conditions: 72 h, read-out: disease control
row,Structure (SMILES),inhibition of growth at 200 ppm
1,Cc1ccc2c(ncn2C2=NC(C)(C)C(F)(F)c3c(F)cccc32)c1C [E-19],≥ 80%
2,Cc1cccc2c1ncn2C1=NC(C)(C)C(F)(F)c2c(F)cccc21 [E-20],≥ 80%
3,Cc1ccc2c(ncn2C2=NC(C)(C)C(F)(F)c3ccccc32)c1C [E-23],≥ 80%
4,Cc1ccc2c(ncn2C2=NC(C)(C)C(=O)c3ccccc32)c1C [E-25],≥ 80%
5,Cc1cccc2c1C(=O)C(C)(C)N=C2n1cnc2c(C)cccc21 [E-26],≥ 80%
6,Cc1cccc2c1C(=O)C(C)(C)N=C2n1cnc2c(C)c(C)ccc21 [E-27],≥ 80%

# Test system: Pyrenophora teres
# Assay: Pyrenophora teres / liquid culture (net blotch)
# Format: cell-based
# Conditions: growth inhibition determined photometrically 3-4 days after application, vs untreated control
row,Structure (SMILES),inhibition of growth at 20 ppm
1,Cc1ccc2c(ncn2C2=NC(C)(C)C(F)(F)c3c(F)cccc32)c1C [E-19],≥ 80%
2,Cc1cccc2c1ncn2C1=NC(C)(C)C(F)(F)c2c(F)cccc21 [E-20],≥ 80%
3,Cc1ccc2c(ncn2C2=NC(C)(C)C(F)(F)c3ccccc32)c1C [E-23],≥ 80%
4,Cc1ccc2c(ncn2C2=NC(C)(C)C(=O)c3ccccc32)c1C [E-25],≥ 80%
5,Cc1cccc2c1C(=O)C(C)(C)N=C2n1cnc2c(C)cccc21 [E-26],≥ 80%
6,Cc1cccc2c1C(=O)C(C)(C)N=C2n1cnc2c(C)c(C)ccc21 [E-27],≥ 80%

# Test system: Monographella nivalis (Microdochium nivale)
# Assay: Monographella nivalis (Microdochium nivale) / liquid culture (foot rot cereals)
# Format: cell-based
# Conditions: 96 h, growth inhibition determined photometrically 4-5 days after application, vs untreated control, read-out: disease control
row,Structure (SMILES),inhibition of growth at 200 ppm
1,Cc1ccc2c(ncn2C2=NC(C)(C)C(F)(F)c3c(F)cccc32)c1C [E-19],≥ 80%
2,Cc1cccc2c1ncn2C1=NC(C)(C)C(F)(F)c2c(F)cccc21 [E-20],≥ 80%
3,Cc1ccc2c(ncn2C2=NC(C)(C)C(F)(F)c3ccccc32)c1C [E-23],≥ 80%
4,Cc1ccc2c(ncn2C2=NC(C)(C)C(=O)c3ccccc32)c1C [E-25],≥ 80%
5,Cc1cccc2c1C(=O)C(C)(C)N=C2n1cnc2c(C)cccc21 [E-26],≥ 80%
6,Cc1cccc2c1C(=O)C(C)(C)N=C2n1cnc2c(C)c(C)ccc21 [E-27],≥ 80%
